Measured values as given in patent US12378250B2, “Tricyclic compound as IRAK4 inhibitor” (KOREA RESEARCH INSTITUTE OF CHEMICAL TECHNOLOGY, priority 2018, dated 2025).

Tests used:
[1] = tested on: TMD-8 cells (B-cell lymphoma cell line); test: Antitumor effect in SCID mice transplanted with TMD-8; assay type: in vivo
Experimental: As experimental animals, severe combined immunodeficiency (SCID) mice (C.B-17/IcrCrj-scid, female) were purchased from Charles River Laboratories Japan, Inc., and used. The mice were acclimatized for 2 weeks or more in an animal room, where temperature (22±1° C.) and humidity (50±10%) were automatically adjusted, and then used for experiments, and allowed to freely ingest water and feed. This animal experiment was performed with the approval of the Animal Care and Use Committee of the Korea Research Institute of Chemical Technology. As a TMD-8 cell line, which is a B-cell lymphoma cell line, a cell line whose subculture had been maintained in the Korea Research Institute of Chemical Technology was used.
Tumors in SCID mice were induced by transplanting TMD-8 cells at 9×10^6 cells/mouse to the right subcutaneous flank of each animal, and when the size of the transplanted tumor reached about 200 mm^3, drug administration was started ([…]). The test drug was suspended in a solution of 20% PEG400 and 3% Tween 80, and orally administered once a day for 14 days. After the test drug was administered, the diameter of the tumor (that is, a long diameter (a) and a short diameter (b) was measured using a calipers every 2 to 3 days, and according to a mathematical formula [size (mm^3) of tumor=(a×b^2)/2], the size (mm^3) of tumor was calculated, and is illustrated in FIGS. 3 and 4. As control drugs, PF-06650833 (Sigma) and ibrutinib (Medichem Express) were purchased and used, and the statistical significance of the antitumor effect of the test drug was verified using a student's T-test (SigmaStat, Jandel Scientific) program.

[2] = target: T1, IRAK4 enzyme (Homo sapiens, UniProt Q9NWZ3); test: IRAK4 enzyme inhibition degree (bead-based kinase assay, peptide substrate BMKC-2, 100 μM ATP); assay type: biochemical; settings: compound 1 μM
T1 sequence (Q9NWZ3 1-460): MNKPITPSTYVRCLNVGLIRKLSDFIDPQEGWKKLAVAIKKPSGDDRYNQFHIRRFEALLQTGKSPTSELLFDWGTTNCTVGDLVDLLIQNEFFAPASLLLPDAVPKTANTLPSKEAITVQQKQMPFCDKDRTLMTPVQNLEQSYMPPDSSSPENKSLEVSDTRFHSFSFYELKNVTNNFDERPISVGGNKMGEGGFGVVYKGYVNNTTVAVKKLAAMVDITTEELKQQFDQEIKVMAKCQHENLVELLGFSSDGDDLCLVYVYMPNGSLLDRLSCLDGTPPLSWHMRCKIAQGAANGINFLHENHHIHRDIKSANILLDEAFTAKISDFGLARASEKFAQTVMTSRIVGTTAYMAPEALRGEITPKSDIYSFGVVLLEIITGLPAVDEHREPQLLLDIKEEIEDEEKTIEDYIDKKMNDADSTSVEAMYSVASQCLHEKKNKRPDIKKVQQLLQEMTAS
Summary of the method: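 IRAK4 (0.4 ng/μl stock) preincubated 10 min with compound, then 6 μM BMKC-2 peptide with 100 μM ATP (mix concentrations) for 60 min at room temperature; EDTA stop. Phospho-Thr antibody with AlphaScreen donor/acceptor beads detected product; % inhibition versus controls, IC50 by non-linear regression.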

[3] = tested on: NF-κB promoter, THP1-Lucia™ NF-κB cell line; test: NF-κB promoter inhibition, THP1-Lucia NF-κB cell line; assay type: cell-based; settings: 100 ng/ml LPS, 24 hours, read-out: NF-κB, % inhibition degree
Summary of the method: (§1)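 THP1-Lucia cells (NF-κB line 1×10^4/well, ISG line 2×10^4/well) preincubated with compound for 30 minutes. Stimulation then used 100 ng/ml LPS (NF-κB) or 1 μg/ml Poly(dA:dT)/LyoVec (ISG) for 24 hours. Secreted luciferase in supernatant measured by Quanti-luc luminescence.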

[4] = tested on: ISG promoter, THP1-Lucia™ ISG cell line; test: ISG promoter inhibition, THP1-Lucia ISG cell line; assay type: cell-based; settings: 1 μg/ml Poly(dA:dT)/LyoVec, 24 hours, read-out: ISG, % inhibition degree
Summary of the method: as §1

[5] = tested on: TNF-α secretion, peripheral blood mononuclear cells (PBMCs); test: Suppression of TNF-α secretion in LPS-treated PBMCs (ELISA); assay type: cell-based; settings: PBMC, 100 ng/ml LPS, 24 hours, read-out: TNF-α, % inhibition degree
Summary of the method: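 PBMCs (1×10^5 cells/well for TNF-α, 2×10^5 for IFN-α) preincubated 30 min with compound, then stimulated with 100 ng/ml LPS for 24 h (TNF-α) or 500 nM ODN2216 for 72 h (IFN-α). Cytokines in supernatants quantified by sandwich ELISA with TMB, absorbance 450/570 nm.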

Fc1cncc(-c2ccc3[nH]c4ncnc(N[C@H]5CC[C@H](N6CCOCC6)CC5)c4c3c2)c1 [Compound 6aaf, 6-(5-fluoropyridin-3-yl)-N-(trans-4-morpholinocyclohexyl)-9H-pyrimido[4,5-b]indole-4-amine]
antitumor effect (tumor size) in combination with ibrutinib ([1]; administered in combination with ibrutinib, oral, once a day for 14 days): excellent effect | change in body weight of the experimental animals ([1]; during the test period): not much change | antitumor effect (tumor size) compared to PF-06650833 ([1]; oral, once a day for 14 days, TMD-8 xenograft): did not show a significant difference in effect when compared to PF-06650833, but showed a slightly better tendency | inhibition at 1 µM [2]: 100% | inhibition at 0.1 µM ([3]; 0.1 μM): 43% | inhibition at 1 µM ([3]; 1 μM): 82% | inhibition at 0.1 µM ([4]; 0.1 μM): 24% | inhibition at 1 µM ([4]; 1 μM): 83% | inhibition at 0.1 µM ([5]; 0.1 μM): 51% | inhibition at 1 µM ([5]; 1 μM): 124%
